In ChEMBL document CHEMBL4680343, “Nosiheptide analogues as potential antibacterial agents via dehydroalanine region modifications: Semi-synthesis, antimicrobial activity and molecular docking study” (2021):

Columns and labels:
Type in all cases: functional
Details in all cases: time 16-20 hrs
Enterococcus faecium = assay: Antimicrobial activity against vancomycin-resistant Enterococcus faecium assessed as inhibition of microbial growth incubated for 16 to 20 hrs under ambient air condition by broth microdilution assay
Staphylococcus aureus [1] = assay: Antimicrobial activity against methicillin-resistant Staphylococcus aureus assessed as inhibition of microbial growth incubated for 16 to 20 hrs under ambient air condition by broth microdilution assay
Staphylococcus aureus [2] = assay: Antimicrobial activity against Staphylococcus aureus ATCC 25923 assessed as inhibition of microbial growth incubated for 16 to 20 hrs under ambient air condition by broth microdilution assay

## C/C=C1\NC(=O)[C@H]([C@@H](C)O)NC(=O)c2csc(n2)-c2cc(O)c(-c3nc(C(=O)NC(CNc4ccc(C(F)(F)F)cc4)C(N)=O)cs3)nc2-c2csc(n2)[C@@H]2CSC(=O)c3[nH]c4cccc(c4c3C)COC(=O)[C@H](O)C[C@H](NC(=O)c3csc1n3)c1nc(cs1)C(=O)N2 (stereo partly drawn)
Enterococcus faecium
  MIC: 0.015 µg/mL
Staphylococcus aureus [1]
  MIC: < 0.0039 µg/mL
Staphylococcus aureus [2]
  MIC: 0.031 µg/mL

## C/C=C1\NC(=O)[C@H]([C@@H](C)O)NC(=O)c2csc(n2)-c2cc(O)c(-c3nc(C(=O)NC(CNc4ccc(I)cc4)C(N)=O)cs3)nc2-c2csc(n2)[C@@H]2CSC(=O)c3[nH]c4cccc(c4c3C)COC(=O)[C@H](O)C[C@H](NC(=O)c3csc1n3)c1nc(cs1)C(=O)N2 (stereo partly drawn)
Enterococcus faecium
  MIC: 0.015 µg/mL
Staphylococcus aureus [1]
  MIC: < 0.0039 µg/mL
Staphylococcus aureus [2]
  MIC: 0.062 µg/mL

## C/C=C1\NC(=O)[C@H]([C@@H](C)O)NC(=O)c2csc(n2)-c2cc(O)c(-c3nc(C(=O)NC(CNc4ccccc4C(F)(F)F)C(N)=O)cs3)nc2-c2csc(n2)[C@@H]2CSC(=O)c3[nH]c4cccc(c4c3C)COC(=O)[C@H](O)C[C@H](NC(=O)c3csc1n3)c1nc(cs1)C(=O)N2 (stereo partly drawn)
Enterococcus faecium
  MIC: 0.015 µg/mL
Staphylococcus aureus [1]
  MIC: < 0.0039 µg/mL
Staphylococcus aureus [2]
  MIC: 0.031 µg/mL

## C/C=C1\NC(=O)[C@H]([C@@H](C)O)NC(=O)c2csc(n2)-c2cc(O)c(-c3nc(C(=O)NC(CNc4cccc(C)c4)C(N)=O)cs3)nc2-c2csc(n2)[C@@H]2CSC(=O)c3[nH]c4cccc(c4c3C)COC(=O)[C@H](O)C[C@H](NC(=O)c3csc1n3)c1nc(cs1)C(=O)N2 (stereo partly drawn)
Enterococcus faecium
  MIC: 0.015 µg/mL
Staphylococcus aureus [1]
  MIC: < 0.0039 µg/mL
Staphylococcus aureus [2]
  MIC: 0.031 µg/mL

## C=C(NC(=O)c1csc(-c2nc3c(cc2O)-c2nc(cs2)C(=O)N[C@@H]([C@@H](C)O)C(=O)N/C(=C\C)c2nc(cs2)C(=O)N[C@H]2C[C@@H](O)C(=O)OCc4cccc5[nH]c(c(C)c45)C(=O)SC[C@H](NC(=O)c4csc2n4)c2nc-3cs2)n1)C(N)=O
Enterococcus faecium
  MIC: 0.031 µg/mL
Staphylococcus aureus [1]
  MIC: 0.0078 µg/mL
Staphylococcus aureus [2]
  MIC: 0.062 µg/mL

## C/C=C1\NC(=O)[C@H]([C@@H](C)O)NC(=O)c2csc(n2)-c2cc(O)c(-c3nc(C(=O)NC(CNc4ccccc4I)C(N)=O)cs3)nc2-c2csc(n2)[C@@H]2CSC(=O)c3[nH]c4cccc(c4c3C)COC(=O)[C@H](O)C[C@H](NC(=O)c3csc1n3)c1nc(cs1)C(=O)N2 (stereo partly drawn)
Enterococcus faecium
  MIC: 0.015 µg/mL
Staphylococcus aureus [1]
  MIC: 0.0078 µg/mL
Staphylococcus aureus [2]
  MIC: 0.062 µg/mL

## C/C=C1\NC(=O)[C@H]([C@@H](C)O)NC(=O)c2csc(n2)-c2cc(O)c(-c3nc(C(=O)NC(CNc4cccc(Br)c4)C(N)=O)cs3)nc2-c2csc(n2)[C@@H]2CSC(=O)c3[nH]c4cccc(c4c3C)COC(=O)[C@H](O)C[C@H](NC(=O)c3csc1n3)c1nc(cs1)C(=O)N2 (stereo partly drawn)
Enterococcus faecium
  MIC: 0.031 µg/mL
Staphylococcus aureus [1]
  MIC: 0.0078 µg/mL
Staphylococcus aureus [2]
  MIC: 0.062 µg/mL

## C/C=C1\NC(=O)[C@H]([C@@H](C)O)NC(=O)c2csc(n2)-c2cc(O)c(-c3nc(C(=O)NC(CNc4ccccc4F)C(N)=O)cs3)nc2-c2csc(n2)[C@@H]2CSC(=O)c3[nH]c4cccc(c4c3C)COC(=O)[C@H](O)C[C@H](NC(=O)c3csc1n3)c1nc(cs1)C(=O)N2 (stereo partly drawn)
Enterococcus faecium
  MIC: 0.015 µg/mL
Staphylococcus aureus [1]
  MIC: < 0.0039 µg/mL
Staphylococcus aureus [2]
  MIC: 0.062 µg/mL

## C/C=C1\NC(=O)[C@H]([C@@H](C)O)NC(=O)c2csc(n2)-c2cc(O)c(-c3nc(C(=O)NC(CNc4cccc(F)c4)C(N)=O)cs3)nc2-c2csc(n2)[C@@H]2CSC(=O)c3[nH]c4cccc(c4c3C)COC(=O)[C@H](O)C[C@H](NC(=O)c3csc1n3)c1nc(cs1)C(=O)N2 (stereo partly drawn)
Enterococcus faecium
  MIC: 0.031 µg/mL
Staphylococcus aureus [1]
  MIC: 0.015 µg/mL
Staphylococcus aureus [2]
  MIC: 0.031 µg/mL

## C/C=C1\NC(=O)[C@H]([C@@H](C)O)NC(=O)c2csc(n2)-c2cc(O)c(-c3nc(C(=O)NC(CNc4ccccc4Br)C(N)=O)cs3)nc2-c2csc(n2)[C@@H]2CSC(=O)c3[nH]c4cccc(c4c3C)COC(=O)[C@H](O)C[C@H](NC(=O)c3csc1n3)c1nc(cs1)C(=O)N2 (stereo partly drawn)
Enterococcus faecium
  MIC: 0.015 µg/mL
Staphylococcus aureus [1]
  MIC: < 0.0039 µg/mL
Staphylococcus aureus [2]
  MIC: 0.015 µg/mL

## C/C=C1\NC(=O)[C@H]([C@@H](C)O)NC(=O)c2csc(n2)-c2cc(O)c(-c3nc(C(=O)NC(CNc4ccc(F)cc4)C(N)=O)cs3)nc2-c2csc(n2)[C@@H]2CSC(=O)c3[nH]c4cccc(c4c3C)COC(=O)[C@H](O)C[C@H](NC(=O)c3csc1n3)c1nc(cs1)C(=O)N2 (stereo partly drawn)
Enterococcus faecium
  MIC: 0.031 µg/mL
Staphylococcus aureus [1]
  MIC: 0.015 µg/mL
Staphylococcus aureus [2]
  MIC: 0.031 µg/mL

## C/C=C1\NC(=O)[C@H]([C@@H](C)O)NC(=O)c2csc(n2)-c2cc(O)c(-c3nc(C(=O)NC(CNc4ccc(Br)cc4)C(N)=O)cs3)nc2-c2csc(n2)[C@@H]2CSC(=O)c3[nH]c4cccc(c4c3C)COC(=O)[C@H](O)C[C@H](NC(=O)c3csc1n3)c1nc(cs1)C(=O)N2 (stereo partly drawn)
Enterococcus faecium
  MIC: 0.031 µg/mL
Staphylococcus aureus [1]
  MIC: 0.015 µg/mL
Staphylococcus aureus [2]
  MIC: 0.062 µg/mL

## C/C=C1\NC(=O)[C@H]([C@@H](C)O)NC(=O)c2csc(n2)-c2cc(O)c(-c3nc(C(=O)NC(CNc4cccc(C(F)(F)F)c4)C(N)=O)cs3)nc2-c2csc(n2)[C@@H]2CSC(=O)c3[nH]c4cccc(c4c3C)COC(=O)[C@H](O)C[C@H](NC(=O)c3csc1n3)c1nc(cs1)C(=O)N2 (stereo partly drawn)
Enterococcus faecium
  MIC: 0.031 µg/mL
Staphylococcus aureus [1]
  MIC: 0.0078 µg/mL
Staphylococcus aureus [2]
  MIC: 0.062 µg/mL

## C/C=C1\NC(=O)[C@H]([C@@H](C)O)NC(=O)c2csc(n2)-c2cc(O)c(-c3nc(C(=O)NC(CNc4cccc(I)c4)C(N)=O)cs3)nc2-c2csc(n2)[C@@H]2CSC(=O)c3[nH]c4cccc(c4c3C)COC(=O)[C@H](O)C[C@H](NC(=O)c3csc1n3)c1nc(cs1)C(=O)N2 (stereo partly drawn)
Enterococcus faecium
  MIC: 0.0078 µg/mL
Staphylococcus aureus [1]
  MIC: < 0.0039 µg/mL
Staphylococcus aureus [2]
  MIC: 0.031 µg/mL

## C/C=C1\NC(=O)[C@H]([C@@H](C)O)NC(=O)c2csc(n2)-c2cc(O)c(-c3nc(C(=O)NC(CNc4ccc(C)cc4)C(N)=O)cs3)nc2-c2csc(n2)[C@@H]2CSC(=O)c3[nH]c4cccc(c4c3C)COC(=O)[C@H](O)C[C@H](NC(=O)c3csc1n3)c1nc(cs1)C(=O)N2 (stereo partly drawn)
Enterococcus faecium
  MIC: 0.031 µg/mL
Staphylococcus aureus [1]
  MIC: 0.0078 µg/mL
Staphylococcus aureus [2]
  MIC: 0.062 µg/mL

## C/C=C1\NC(=O)[C@H]([C@@H](C)O)NC(=O)c2csc(n2)-c2cc(O)c(-c3nc(C(=O)NC(CNc4ccccc4C)C(N)=O)cs3)nc2-c2csc(n2)[C@@H]2CSC(=O)c3[nH]c4cccc(c4c3C)COC(=O)[C@H](O)C[C@H](NC(=O)c3csc1n3)c1nc(cs1)C(=O)N2 (stereo partly drawn)
Enterococcus faecium
  MIC: 0.015 µg/mL
Staphylococcus aureus [1]
  MIC: < 0.0039 µg/mL
Staphylococcus aureus [2]
  MIC: 0.015 µg/mL
